Measured values from US11940444B2, “Method of stabilizing molecules without refrigeration using water soluble polymers and applications thereof in performing chemical reactions” (priority 2013, dated 2024).

How the values were obtained:
[1] = ATCh stability (Ellman assay reagents); type: physicochemical; conditions: several days in the refrigerator and in a fume hood with no protection
Description: When tested in solution, with the following amounts of reagents were used: • i. 15 uL ATCh (300 uM), 1 uL AChE (10 or 250 U/L) • ii. 50 uL of 500 uM DTNB • iii. 34 uL Tris
Acetylthiocholine (ATCh) is an unstable molecule, and will hopefully be stabilized on paper. However, after several tests were performed, it was noted that after being left in the refrigerator for several days, and left in a fume hood with no protection against hydrolyzation, the ATCh was still stable when tested. The most likely reason for the continued activity of the ATCh is due to the Tris buffer it was dissolved in being evaporated, and the ATCh in a solid (or powdered) form is stable. Accordingly, it should be reliable to store the ATCh as a powder form, preferably inside of a soluble (pullulan) capsule.

[2] = target: T1, Luciferase (Photinus pyralis, UniProt P08659); experiment: ATP detection assay with luminescent pills; type: biochemical, Firefly
T1 construct: purchased Sigma-Aldrich
T1 sequence (P08659 whole entry): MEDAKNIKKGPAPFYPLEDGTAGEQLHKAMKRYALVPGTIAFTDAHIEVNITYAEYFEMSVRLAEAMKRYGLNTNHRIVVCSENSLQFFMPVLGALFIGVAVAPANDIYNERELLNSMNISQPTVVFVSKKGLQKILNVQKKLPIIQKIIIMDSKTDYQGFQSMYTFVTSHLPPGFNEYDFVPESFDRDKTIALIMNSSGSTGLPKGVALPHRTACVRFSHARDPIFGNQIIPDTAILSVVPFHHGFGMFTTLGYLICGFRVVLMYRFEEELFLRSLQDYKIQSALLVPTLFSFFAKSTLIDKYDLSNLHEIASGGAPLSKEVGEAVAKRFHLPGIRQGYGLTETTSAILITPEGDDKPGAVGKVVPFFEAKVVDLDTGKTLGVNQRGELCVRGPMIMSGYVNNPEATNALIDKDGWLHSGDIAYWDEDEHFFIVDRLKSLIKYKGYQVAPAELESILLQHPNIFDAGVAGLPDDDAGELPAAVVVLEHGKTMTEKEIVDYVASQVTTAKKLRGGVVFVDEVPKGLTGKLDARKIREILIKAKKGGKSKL
Description: The sensitivity of the luciferase assay was also investigated. To determine the detection limit of the assay, different ATP buffers were prepared with concentration ranging from 0 pM to 1000 pM and tested it with luminescent pills.

[3] = system: Acetylcholinesterase; conditions: Michaelis rate law, literature (Sadar and Laidler 1974); cited from earlier work
[4] = target: AChE (Electrophorus electricus, UniProt O42275); experiment: Pesticide tests in Eppendorf tubes (AChE/IDA color change); type: biochemical; conditions: No. 1: malathion 10-2 mol/L, 5 μL AChE, 250 mg/mL pullulan, 30 μL, incubation 15 min
Chain of AChE (O42275 24-633): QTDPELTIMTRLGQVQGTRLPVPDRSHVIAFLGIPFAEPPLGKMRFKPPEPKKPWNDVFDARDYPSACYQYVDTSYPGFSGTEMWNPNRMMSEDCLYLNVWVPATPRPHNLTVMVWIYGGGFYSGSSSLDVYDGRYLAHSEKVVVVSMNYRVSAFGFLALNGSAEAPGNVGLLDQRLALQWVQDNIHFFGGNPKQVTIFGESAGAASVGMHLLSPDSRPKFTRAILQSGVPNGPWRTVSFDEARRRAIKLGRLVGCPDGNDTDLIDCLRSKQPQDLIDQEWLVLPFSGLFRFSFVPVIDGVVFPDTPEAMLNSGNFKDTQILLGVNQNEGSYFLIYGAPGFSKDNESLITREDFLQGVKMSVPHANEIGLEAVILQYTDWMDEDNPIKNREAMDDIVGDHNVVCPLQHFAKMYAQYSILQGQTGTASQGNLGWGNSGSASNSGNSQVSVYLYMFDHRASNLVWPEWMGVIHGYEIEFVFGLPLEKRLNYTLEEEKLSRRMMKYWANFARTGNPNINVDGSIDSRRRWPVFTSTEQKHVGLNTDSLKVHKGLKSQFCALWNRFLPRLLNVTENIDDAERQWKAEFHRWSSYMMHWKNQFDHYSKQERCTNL
Description: Three trials were conducted with fresh malathion (from Bioninterfaces Institute), which was diluted with Tris buffer to a concentration of 10-2 mol/L. A control sample was also done with 5 μL of AChE and 250 mg/mL pullulan to ensure that a color change would occur. The color change was initially green (˜2 minutes), then became a blue color which increased in intensity over time.
Information about the contents and the results of each Eppendorf tube test with pesticides is presented below. A control test was performed with 5 μL of AChE and L of dH2O with 5 μL of IDA/methanol, and the color change to blue-green was very quick.

[5] = AChE stability over time in pullulan (reaction rate with IDA, absorbance at 605 nm); type: physicochemical
Description: In order to quantify the protection that pullulan provides to AChE over time, it was attempted to create a set of samples (40) which will be tested over time. Each sample (cast into a 600 μL eppendorf tube) contains: • i. 40 μL of 200 mg/mL pullulan solution • ii. μL of AChE (250 U/L)
Each sample tube was allowed to dry, then was sealed and placed into a plastic bag and stored at ambient conditions (˜20° C.). At selected time points, the activity of the solution was tested by measuring absorbance over time, and finding the associated reaction rate (corresponding to the activity of the enzyme). To measure the activity, three (3) samples were taken (to establish triplicate repeats), and 195 μL of Tris buffer (100 mM, pH=8.0) was added to each Eppendorf tube and allowed to dissolve the […]. The resulting solution was then added to a 96 well plate, and absorbance was measured continuously at 605 nm after the addition of 5 μL of 80 mM IDA.

[6] = Long-term stability of AChE and IDA tablets stored at room temperature; type: physicochemical
Description: To test the ability of pullulan to retain IDA activity, 10 μL of 40 mM IDA and 40 μL of 120 g/L pullulan in water were mixed and casted in a polypropylene mold with wells with a size of 3 mm in diameter×3 mm in depth. The solution was air-dried overnight at 21° C. and 48% RH; tablet formation was considered not fully completed if the tablet could not be removed from the bottom of the well. […] To test IDA activity, 199 μL of Tris-HCl (100 mM, pH 8) was used to dissolve the pill and 1 μL of fresh 250 U/mL AChE was added. The solution was then transferred to a 96-well plate and the absorbance of the developing blue color was measured at A605 on a TECAN Infinite M200 Pro microtiter plate reader.
To test the ability of pullulan to retain AChE activity, 1 μL of 250 U/mL AChE and 40 μL of 120 g/L pullulan were mixed and casted into tablets. The solution was air-dried overnight at 21° C. and 48% RH; tablet formation was considered not fully completed if the tablet could not be removed from the bottom of the well; […] To test AChE activity, 195 μL of Tris-HCl (100 mM, pH 8) was used to dissolve the tablet and 5 μL of fresh 80 mM IDA was added. The solution was then transferred to a 96-well plate and the absorbance was measured at A605 on TECAN Infinite M200 Pro microtiter plate reader.

[7] = Loss of AChE activity as a function of temperature (30 min heat treatment); type: physicochemical; conditions: 30-minute heat treatment at 50° C. or above
Description: To test the ability of pullulan to retain AChE activity, 1 μL of 250 U/mL AChE and 40 μL of 120 g/L pullulan were mixed and casted into tablets. The solution was air-dried overnight at 21° C. and 48% RH; tablet formation was considered not fully completed if the tablet could not be removed from the bottom of the well; and the resulting tablets were kept at room temperature for different lengths of time before being tested. To test AChE activity, 195 μL of Tris-HCl (100 mM, pH 8) was used to dissolve the tablet and 5 μL of fresh 80 mM IDA was added. The solution was then transferred to a 96-well plate and the absorbance was measured at A605 on TECAN Infinite M200 Pro microtiter plate reader.
The loss of AChE activity, however, is attributed to thermal denaturation. To further examine the role of pullulan in stabilizing AChE, activity of AChE was monitored as a function of temperature. For this experiment, native (unencapsulated) AChE and the corresponding pullulan tablet were treated at a given temperature for 30 min, followed by activity assessment at room temperature. […] In stark contrast, AChE tablets retained ca. 90% of their initial activity even after a 30-minute incubation at 90° C.

[8] = Comparison of AChE activity with different concentrations of pullulan after 2 weeks; type: physicochemical; conditions: AChE in 125 and 250 mg/mL pullulan, 2 weeks age
Description: To determine the effect the concentration of pullulan has on the maintenance of the AChE enzyme two samples of 2 weeks age were tested (125 and 250 mg/mL). […] More trials will be conducted at 1 week intervals to determine if there is a noticeable color intensity difference over time.

[9] = Stability of 'all-in-one' luminescent pills at room storage condition; type: physicochemical
Description: All reagents for the luciferase assay except for adenosine triphospate (ATP) were casted in a single pullulan pill. For the pullulan pills aqueous solutions of 10 mM Luciferin, […], 27 mM Coenzyme A (CoA), 170 mM Dithiothreitol (DTT), 10 mM Ethylenediaminetetraacetic acid (EDTA), 107 mM MgCO3, and 267 mM MgSO4 were prepared. 200 μL of each solution was added to 8 mL of 12 w/v % Pullulan solution. Lastly, for each pill 47 μL of the final solution was pipetted onto a PET film and dried in a glove box under nitrogen. The casted pills were then stored at room temperature.
A buffer solution containing ATP was prepared to test the activity of the luciferase pills. For the buffer solution, 16 mL of water was added to 2 mL of 2.5 mM ATP and 2 mL of 200 mM Tricine and the pH was adjusted to pH 7.8.
Once the pills were completely dried, they were collected in dark bottles. The pills were stored at room temperature and the activity of the pills was tested over time. On the day the pills were prepared, the activity of the fresh pullulan and reagent solution was tested. 47 μL of the solution and 100 μL of the buffer were added to a 96 well-plate and the luminescence was measured using the TECAN M1000. On subsequent days, the activity of the pills was measured by placing a single pill into a well and 100 μL of ATP buffer. Each test was performed with three repeats.

[10] = Testing IDA capsules and pullulan films (IDA protection); type: physicochemical
Description: 15 μL of IDA dissolved in methanol was added to a pullulan capsule (cast in an eppendorf tube lid), and sealed with a 5 mL (50 mg/mL, 3.5 cm petri dish) PVA film using a PVA glue solution. Another capsule was prepared with IDA in a powdered form. The capsules were left to determine if the PVA will serve as an oxygen barrier to protect the IDA from oxidation over a period of time
In order to determine if pullulan works to stabilize IDA when the IDA is mixed into the pullulan solution, a solution of 300 mg/mL pullulan was mixed, and 5 μL of IDA dissolved in methanol was added to each 30 μL of sample.
Five samples were cast (total volume of 35 μL) into the caps of 0.6 mL Eppendorf microcentrifuge tubes and left to dry. The activity of the IDA will be measured by: • i. checking for a pink/red color change, which indicates the IDA is hydrolysed or oxidized • ii. testing with AChE to ensure that a blue color change still results Pesticide Tests
Previously explored was the addition of IDA (solution and powder form) to two PVA capsules. 5 uL of IDA dissolved in methanol was added to one, and IDA in powder form was added to the other.
Also tested was one of the capsules with IDA solution cast into a pullulan film (in the lid of a 0.6 mL eppendorf tube). […]

CC(=O)SCC[N+](C)(C)C [ATCh, Acetylthiocholine]
stability of ATCh [1]: still stable

Nc1ncnc2c1ncn2[C@@H]1O[C@H](COP(=O)(O)OP(=O)(O)OP(=O)(O)O)[C@@H](O)[C@H]1O [ATP, Adenosine triphosphate]
limit of detection of ATP concentration ([2]; at 3a above background, tricine buffer): 16 pM
limit of detection as amount of ATP ([2]; in 100 uL added to the pill): 1.6 fmol

CC(=O)Oc1cn(C)c2ccccc12 [N-methylindoxyl acetate]
Km [3]: 2.58 mM
kc [3]: 320 s⁻¹

CCOC(=O)CC(SP(=S)(OC)OC)C(=O)OCC (centres unmarked) [malathion]
Result (color change) [4]: IDA/methanol. No color change at 5 minutes.

Acetylcholinesterase [AChE]
activity as compared to a fresh sample ([5]; AChE cast in 200 mg/mL pullulan, stored at ambient conditions (~20 °C), over 30 days): approximately 63%
activity of AChE left out without pullulan ([5]; without any pullulan, left out for 24 hours): completely inactivated
time to become completely inactive ([6]; stored in solution at room temperature): ≤ 3 days
activity after heat treatment [7]: completely inactive
activity of the enzyme over two weeks [8]: not much decreased

Luciferase
loss of activity in buffer ([9]; same components stored in buffer solution): loses its activity in buffer solution in few hours
activity of enzyme alone in pullulan pills ([9]; stored at room temperature): active even after four months

indoxyl acetate [IDA]
complete inactivation ([6]; in solution at room temperature): completely inactive within a week
loss of activity ([6]; in solution at room temperature, within one day): 70%
time protected from hydrolyzation/oxidation ([10]; IDA solution cast into a pullulan film): ~2 weeks
IDA stability in PVA capsules ([10]; IDA solution or powder in PVA capsules, tested with AChE): kept stable over a period of two weeks
